Measured values reported in article PMC8636514, “Therapeutic potential of TRPM8 antagonists in prostate cancer” (Scientific Reports, 2021).

Tests used:
C4-2B cells = assay: DNA synthesis (BrdU incorporation) in C4-2B cells; format: cell-based, human
Method: Cells on coverslips were pulsed in vivo with BrdU (Sigma-Aldrich; at 100 μM, final concentration) and left unchallenged or challenged with 10 nM R1881 for 18 h, in the absence or presence of the indicated compounds. Cells were fixed, permeabilized, washed and the BrdU incorporation was analysed as reported. Nuclei were stained with Hoechst and cells on coverslips were scored by IF microscopy, using a DMLB Leica (Leica) fluorescent microscope, equipped with HCX PL Apo 63 × oil objective. Different fields from each coverslip were analyzed and BrdU incorporation was calculated by the formula: percentage of BrdU-positive cells = (No. of BrdU-positive cells/No. of total cells) × 100. Data in the graphs derive from at least 1000 scored cells for each coverslip. Representative images were captured using DC480 camera (Leica) and acquired using Leica Suite software. They are representative of three different experiments.

cyclin D1 = assay: Western blot of cyclin D1 in LNCaP cells; format: cell-based, human; details: for Cyclin D1, fold increase over the basal level: 15 h; for androgen-induced up-regulation of cyclin D1: R1881, compound 1 μM
Text: (§1) All performed as reported. The mouse monoclonal anti-AR (441; Santa Cruz) antibody was used in Co-Ip or WB approaches. TRPM8 was detected using the rabbit polyclonal anti-TRPM8 (NBP1-97311; Novus Biological). […] The rabbit polyclonal anti-ERK (C-14; Santa Cruz), antibody was used to detect total ERK. FAK and P-Tyr397 FAK were detected using the mouse monoclonal anti-FAK (Clone 77/610077 BD Transduction Laboratories) or anti P-Tyr397 FAK (Clone 14/611722; BD Transduction Laboratories) antibodies, respectively. P-Tyr118 paxillin and total paxillin were detected using the rabbit polyclonal anti-P-Y118 (#2541, Cell Signaling) or the mouse monoclonal anti-paxillin (clone 349; BD Biosciences) antibodies, respectively. […] P-Tyr 416 Src and Src were detected using the rabbit monoclonal anti P-Tyr 416 Src (#6943; Cell Signaling) or the mouse monoclonal anti Src (Calbiochem) antibodies, respectively. ERα and ERβ were detected using the rabbit polyclonal anti-ERα (543; Santa Cruz) or anti-ERβ (Upstate Biotechnology, U.S.A.) antibodies. Cyclin D1, p27 and Cdk4 were stained using the mouse monoclonal anti-cyclin D1 (clone AM29; from Zymed Laboratories Inc.), the rabbit polyclonal anti-p27 (C-19; Santa Cruz) or anti Cdk-4 (c-22; Santa Cruz) antibodies, respectively. The mouse monoclonal anti-tubulin (Sigma-Aldrich) antibody was used to detect tubulin. The ECL system (GE Healthcare) was employed to reveal immune-reactive proteins. Densitometric analysis of WB was performed by using Image J Software (https://imagej.nih.gov/ij).

p27 = assay: Western blot of p27 in LNCaP cells; format: cell-based, human; details: for P27, fold increase over the basal level: 15 h; for androgen-induced p27 down-regulation: R1881, compound 1 μM
Text: as §1

Cdk4 = assay: Western blot of Cdk4 in LNCaP cells; format: cell-based, human; details: 15 h
Text: as §1

LNCaP cell spheroids = assay: 3D culture in ECM, LNCaP cell spheroid size; format: cell-based, human; details: for androgen-induced increase of spheroid size / spheroid size in the absence of hormone: 15 days; for spheroid size in the absence of hormone: compound 1 μM alone
Method: LNCaP cell spheroids were generated as reported. Briefly, 2 × 10^4 LNCaP cells were mixed with 200 μL of phenol-red free growth factor-reduced Matrigel and 50 μL of organoid plating medium in each well. The mixture was pipetted in 24-well plate and allowed to solidify for 45 min at 37 °C, before the addition of 400 μL organoid plating-medium, which was made using phenol red-free DMEM/F12 medium, containing 7% CSS, penicillin (100 U/mL), streptomycin (100 U/mL), diluted GlutaMAX 100X (Gibco), 10 mM Hepes, B27 supplement (50 × stock solution; Thermofisher, Waltham, Massachusetts, USA), […] nicotinamide (Sigma-Aldrich), […] N-acetylcysteine (Sigma-Aldrich) and 10 μM Y-27632 (Millipore, Burlington, MA, USA). After 3 days, the organoid-plating medium was replaced with a similar medium in the absence of N-acetylcysteine and Y-27632. At the 3rd day, spheroids/organoids were untreated or treated with the indicated compounds. The medium was changed every 3 days and fields were analyzed by phase-contrast microscopy.
In wound scratch assay, different fields were analysed using DMIRB inverted microscope (Leica) equipped with N-Plan 10 × objective (Leica), as reported. LNCaP organoids were analysed using the same microscope equipped with C-Plan 40 × or HCX PL Fluotar 63 × objectives (Leica). Images were captured using a DFC 450C camera (Leica) and acquired using the Application Suite Software (Leica). They are representative of three different experiments. The relative organoid size was calculated using the same software and expressed as a fold increase over the basal organoid size (measured at 3th day). The wound gap was calculated using Image J Software and expressed as % of the decrease in the wound area. Migrating or invading cells from at least 30 fields/each membrane were scored, using a DMLB (Leica) fluorescent microscope, equipped with HCPL Fluotar 20 × objective.

AR/TRPM8 complex = target: T1, AR/TRPM8 complex (Homo sapiens, UniProt Q7Z2W7); assay: Co-IP of AR with TRPM8 in LNCaP cells; format: cell-based; details: for androgen-induced Co-IP of AR with TRPM8: 10 nM R1881, 10 min, compound 1 μM; for AR in IP anti-AR, Average (n=3) / TRPM8 in IP anti-AR, Average (n=3): Fig 6d lower panel; for AR, Average (n=3) / TRPM8, Average (n=3): Fig 6e, R1881 alone
T1 construct: We here dissected an endogenous non-genomic mechanism of the TRPM8 channel regulation by androgens in PC cells; endogenous in cells; host or cells: LNCaP cells
Text: as §1

AR = assay: Western blot of AR in LNCaP lysate proteins; format: cell-based, human; details: for AR in lysates, Average (n=3): Fig 6d upper panel
Text: as §1

TRPM8 = assay: Western blot of TRPM8 in LNCaP lysate proteins; format: cell-based, human; details: for TRPM8 in lysates, Average (n=3): Fig 6d upper panel
Text: as §1

LNCaP cells = assay: Fluorescent Ca2+ imaging (Fluo 4-AM) in LNCaP cells; format: cell-based, human; details: for androgen-induced increase of intracellular Ca2+ levels: 10 nM R1881, 240 s, compound 1 μM
Method: LNCaP cells in 6 multi-wells were made quiescent and incubated for 60 min at 37 °C with 1 µM 4-Fluo AM (Abcam, ab241082). Cells were washed twice with Hank’s Balanced salt solution (HBSS) to remove any dye non-specifically associated with the cell surface. They were incubated with medium for 30 min to allow complete de-esterification of intracellular AM esters, and then left untreated or treated for 240 s with 10 nM R1881, in the absence or presence of the indicated compounds. Different fields were analyzed using DMIRB Leica (Leica) microscope equipped with C-Plan × 40 or HCX PL Fluotar × 63 objectives (Leica). IF microscopy images were generated using a DFC 450C camera (Leica).

[1] = cycling cells, 18 h, 100 nM and 1 μM
[2] = 1 nM R1881 + compound 1 μM, Fig 2e-f
[3] = 10 nM R1881 + compound 1 μM, Fig 2d
[4] = fourth group of list (probably IP anti-AR)

T1 sequence (Q7Z2W7 whole entry, one chain of several): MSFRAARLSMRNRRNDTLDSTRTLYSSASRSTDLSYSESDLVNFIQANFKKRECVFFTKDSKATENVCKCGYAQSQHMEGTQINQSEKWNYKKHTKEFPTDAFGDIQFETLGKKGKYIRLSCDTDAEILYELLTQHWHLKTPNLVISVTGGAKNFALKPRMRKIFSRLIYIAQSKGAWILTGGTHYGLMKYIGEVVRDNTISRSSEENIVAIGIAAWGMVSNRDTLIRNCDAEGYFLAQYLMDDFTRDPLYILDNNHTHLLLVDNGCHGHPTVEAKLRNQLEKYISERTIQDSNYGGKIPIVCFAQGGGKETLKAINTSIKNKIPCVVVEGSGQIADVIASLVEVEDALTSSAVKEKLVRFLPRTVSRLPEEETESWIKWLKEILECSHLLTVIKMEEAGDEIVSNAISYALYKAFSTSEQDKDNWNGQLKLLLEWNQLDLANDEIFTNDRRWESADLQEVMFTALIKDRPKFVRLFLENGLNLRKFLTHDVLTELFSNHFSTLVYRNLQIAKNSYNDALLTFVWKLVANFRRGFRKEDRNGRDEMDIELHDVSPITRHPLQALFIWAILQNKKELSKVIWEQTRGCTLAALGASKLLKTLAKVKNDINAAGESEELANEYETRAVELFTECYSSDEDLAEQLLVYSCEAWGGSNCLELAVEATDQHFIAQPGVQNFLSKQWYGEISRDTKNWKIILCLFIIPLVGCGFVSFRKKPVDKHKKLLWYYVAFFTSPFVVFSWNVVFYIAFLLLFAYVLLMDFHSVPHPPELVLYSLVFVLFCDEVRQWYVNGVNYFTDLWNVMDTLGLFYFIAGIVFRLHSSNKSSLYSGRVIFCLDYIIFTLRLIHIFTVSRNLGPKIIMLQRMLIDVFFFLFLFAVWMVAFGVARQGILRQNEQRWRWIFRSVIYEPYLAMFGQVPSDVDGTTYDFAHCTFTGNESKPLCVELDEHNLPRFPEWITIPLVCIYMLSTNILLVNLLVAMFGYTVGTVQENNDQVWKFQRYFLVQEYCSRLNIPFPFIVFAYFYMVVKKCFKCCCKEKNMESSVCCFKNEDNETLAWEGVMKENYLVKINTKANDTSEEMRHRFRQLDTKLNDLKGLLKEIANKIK

COC(=O)[C@H](Cc1c[nH]c2ccccc12)N(Cc1ccccc1)Cc1ccccc1 [Compound 6] was tested, and the BrdU incorporation (C4-2B cells; [1]) was “inhibited”, the “Cyclin D1, fold increase over the basal level” value (“Cyclin D1, fold increase” for short) (cyclin D1; [2]) was 0,9 fold and the “Cyclin D1, fold increase” value (cyclin D1; [3]) was 1,2 fold. For the same compound, the “androgen-induced up-regulation of cyclin D1” value (cyclin D1) was “significantly impair”, the “P27, fold increase over the basal level” value (p27; [2]) was 1 fold and the “P27, fold increase over the basal level” value (p27; [3]) was 1,1 fold. The “androgen-induced p27 down-regulation” value (p27) was “significantly impair”, the “Cdk4, fold increase over the basal level” value (Cdk4; [2]) was 1,1 fold and the “Cdk4, fold increase over the basal level” value (Cdk4; [3]) was 1,1 fold. For the same compound, the “androgen-induced increase of spheroid size” value (LNCaP cell spheroids; 1 nM R1881, compound 1 µM) was “reverted”, the “androgen-induced increase of spheroid size” value (LNCaP cell spheroids; 10 nM R1881, compound 1 μM) was “abolished” and the “spheroid size in the absence of hormone” value (LNCaP cell spheroids) was “leaving unaffected”. For the same compound, the “androgen-induced Co-IP of AR with TRPM8” value (AR/TRPM8 complex) was “abolished this association”, the “AR in IP anti-AR, Average (n=3)” value (AR/TRPM8 complex; 10 nM R1881 + compound 1 μM) was 1 and the “TRPM8 in IP anti-AR, Average (n=3)” value (AR/TRPM8 complex; 10 nM R1881 + compound 1 μM) was 0,6. For the same compound, the “AR in IP anti-AR, Average (n=3)” value (AR/TRPM8 complex; compound 1 μM alone) was 1,1, the “TRPM8 in IP anti-AR, Average (n=3)” value (AR/TRPM8 complex; compound 1 μM alone) was 0,3 and the “AR/TRPM8 complex assembly in the absence of hormone” value (AR/TRPM8 complex; compound 1 μM alone) was “did not affect”. The “AR in lysates, Average (n=3)” value (AR; 10 nM R1881 + compound 1 μM) was 1,1, the “AR in lysates, Average (n=3)” value (AR; compound 1 μM alone) was 0,9 and the “TRPM8 in lysates, Average (n=3)” value (TRPM8; 10 nM R1881 + compound 1 μM) was 1. The “TRPM8 in lysates, Average (n=3)” value (TRPM8; compound 1 μM alone) was 1,1 and the “androgen-induced increase of intracellular Ca2+ levels” value (LNCaP cells) was “reduced the androgen effect”.
c1ccc(COc2ccc3[nH]cc(CCNCc4ccc(Oc5ccccc5)cc4)c3c2)cc1 [Compound 4] was tested, and the BrdU incorporation (C4-2B cells; [1]) was “inhibited”, the “Cyclin D1, fold increase” value (cyclin D1; [2]) was 0,9 fold and the “androgen-induced up-regulation of cyclin D1” value (cyclin D1) was “significantly impair”. For the same compound, the “P27, fold increase over the basal level” value (p27; [2]) was 1,1 fold, the “androgen-induced p27 down-regulation” value (p27) was “significantly impair” and the “Cdk4, fold increase over the basal level” value (Cdk4; [2]) was 1 fold. The “androgen-induced increase of spheroid size” value (LNCaP cell spheroids; 1 nM R1881, compound 1 µM) was “reverted”, the “androgen-induced increase of spheroid size” value (LNCaP cell spheroids; 10 nM R1881, compound 1 μM) was “abolished” and the “spheroid size in the absence of hormone” value (LNCaP cell spheroids) was “leaving unaffected”. For the same compound, the “androgen-induced Co-IP of AR with TRPM8” value (AR/TRPM8 complex) was “abolished this association”, the “AR in IP anti-AR, Average (n=3)” value (AR/TRPM8 complex; 10 nM R1881 + compound 1 μM) was 1,1 and the “TRPM8 in IP anti-AR, Average (n=3)” value (AR/TRPM8 complex; 10 nM R1881 + compound 1 μM) was 0,7. The “AR in IP anti-AR, Average (n=3)” value (AR/TRPM8 complex; compound 1 μM alone) was 1,1, the “TRPM8 in IP anti-AR, Average (n=3)” value (AR/TRPM8 complex; compound 1 μM alone) was 0,3 and the “AR/TRPM8 complex assembly in the absence of hormone” value (AR/TRPM8 complex; compound 1 μM alone) was “did not affect”. For the same compound, the “AR in lysates, Average (n=3)” value (AR; 10 nM R1881 + compound 1 μM) was 0,9, the “AR in lysates, Average (n=3)” value (AR; compound 1 μM alone) was 0,9 and the “TRPM8 in lysates, Average (n=3)” value (TRPM8; 10 nM R1881 + compound 1 μM) was 1. The “TRPM8 in lysates, Average (n=3)” value (TRPM8; compound 1 μM alone) was 1 and the “androgen-induced increase of intracellular Ca2+ levels” value (LNCaP cells) was “reduced the androgen effect”.
With C[C@]1(O)CC[C@H]2[C@@H]3CCC4=CC(=O)CCC4=C3C=C[C@@]21C [Compound R1881, reference compound] the BrdU incorporation (C4-2B cells; 10 nM R1881 (not shown)) was “did not observe any effect”, the “Cyclin D1, fold increase” value (cyclin D1; 1 nM R1881 alone, Fig 2e) was 1,5 fold and the “Cyclin D1, fold increase” value (cyclin D1; 1 nM R1881 alone, Fig 2f) was 1,7 fold. The “Cyclin D1, fold increase” value (cyclin D1; 10 nM R1881 alone, Fig 2d) was 2,7 fold, the “P27, fold increase over the basal level” value (p27; 1 nM R1881 alone, Fig 2e) was 0,6 fold and the “P27, fold increase over the basal level” value (p27; 1 nM R1881 alone, Fig 2f) was 0,6 fold. For the same compound, the “P27, fold increase over the basal level” value (p27; 10 nM R1881 alone, Fig 2d) was 0,4 fold, the “Cdk4, fold increase over the basal level” value (Cdk4; 1 nM R1881 alone, Fig 2e) was 1 fold and the “Cdk4, fold increase over the basal level” value (Cdk4; 1 nM R1881 alone, Fig 2f) was 1,1 fold. The “Cdk4, fold increase over the basal level” value (Cdk4; 10 nM R1881 alone, Fig 2d) was 1 fold, the “response on spheroid size” value (LNCaP cell spheroids; 1 nM R1881 alone) was “only a weak response” and the “AR, Average (n=3)” value (AR/TRPM8 complex; [4]) was 1. The “TRPM8, Average (n=3)” value (AR/TRPM8 complex; [4]) was 3,1, the “AR, Average (n=3)” value (AR/TRPM8 complex; second group of list) was 0,1 and the “TRPM8, Average (n=3)” value (AR/TRPM8 complex; second group of list) was 0,1. For the same compound, the “AR, Average (n=3)” value (AR/TRPM8 complex; third group of list) was 1, the “TRPM8, Average (n=3)” value (AR/TRPM8 complex; third group of list) was 0 and the “AR in IP anti-AR, Average (n=3)” value (AR/TRPM8 complex; 10 nM R1881 alone, 10 min) was 1. The “TRPM8 in IP anti-AR, Average (n=3)” value (AR/TRPM8 complex; 10 nM R1881 alone, 10 min) was 2,9, the “AR, Average (n=3)” value (AR; Fig 6e, first group of list (section not labelled, probably lysates), R1881 alone) was 1 and the “AR in lysates, Average (n=3)” value (AR; 10 nM R1881 alone, 10 min) was 1. For the same compound, the “amount of TRPM8 (Western blot)” value (TRPM8; 10 nM R1881, 24 h, quiescent LNCaP cells) was “very weakly increased”, the “TRPM8, Average (n=3)” value (TRPM8; Fig 6e, R1881 alone) was 1 and the “TRPM8 in lysates, Average (n=3)” value (TRPM8; 10 nM R1881 alone, 10 min) was 0,9. The “intracellular Ca2+ levels” value (LNCaP cells; 10 nM R1881 alone, within 240 s) was “increased”.
